How the values were obtained:
[1] = test system: Sarcina lutea (ATCC 9341); assay: antibacterial spectrum, agar dilution method; type: cell-based; conditions: 10^8 x1
Escherichia coli (B) = assay: antibacterial spectrum, agar dilution method; type: cell-based; conditions: E. coli B, 10^8 x1
Mycoplasma gallisepticum = assay: anti-mycoplasmal spectrum, agar dilution method; type: cell-based; conditions: 10^8 x1
[2] = test system: Staphylococcus aureus (0127); assay: antibacterial spectrum, agar dilution method; type: cell-based; conditions: S. aureus 0127, 10^8 x1
[3] = test system: Streptococcus pyogenes (N.Y.5); assay: antibacterial spectrum, agar dilution method; type: cell-based; conditions: S. pyogenes N.Y.5, 10^8 x1
[4] = test system: Salmonella typhosa (E 901); assay: antibacterial spectrum, agar dilution method; type: cell-based; conditions: 10^8 x1
Mycoplasma synoviae = assay: anti-mycoplasmal spectrum, agar dilution method; type: cell-based; conditions: 10^8 x1
[5] = test system: Klebsiella pneumoniae (ATCC 10031); assay: antibacterial spectrum, agar dilution method; type: cell-based; conditions: 10^8 x1
acidic or basic nature = type: physicochemical
[6] = test system: Staphylococcus aureus (MS 353 AO); assay: antibacterial spectrum, agar dilution method; type: cell-based; conditions: S. aureus MS 353 AO, 10^8 x1
[7] = test system: Streptococcus pyogenes (1022); assay: antibacterial spectrum, agar dilution method; type: cell-based; conditions: S. pyogenes 1022, 10^8 x1
[8] = test system: Corynebacterium diphtheriae (P.W.8); assay: antibacterial spectrum, agar dilution method; type: cell-based; conditions: 10^8 x1
Proteus vulgaris (OX19) = assay: antibacterial spectrum, agar dilution method; type: cell-based; conditions: 10^8 x1
[9] = test system: Shigella flexneri type 3a; assay: antibacterial spectrum, agar dilution method; type: cell-based; conditions: 10^8 x1
[10] = test system: Staphylococcus aureus (0119); assay: antibacterial spectrum, agar dilution method; type: cell-based; conditions: S. aureus 0119, 10^8 x1
Serratia marcescence = assay: antibacterial spectrum, agar dilution method; type: cell-based; conditions: 10^8 x1
Shigella sonney (E 33) = assay: antibacterial spectrum, agar dilution method; type: cell-based; conditions: 10^8 x1
[11] = test system: Staphylococcus epidermidis (s.p.-al-l); assay: antibacterial spectrum, agar dilution method; type: cell-based; conditions: 10^8 x1
[12] = test system: Staphylococcus aureus (ATCC 6538 P); assay: antibacterial spectrum, agar dilution method; type: cell-based; conditions: S. aureus ATCC 6538 P, 10^8 x1
[13] = test system: Pseudomonas aeruginosa (IAM 1095); assay: antibacterial spectrum, agar dilution method; type: cell-based; conditions: 10^8 x1
[14] = test system: Micrococcus flavus (ATCC 10240); assay: antibacterial spectrum, agar dilution method; type: cell-based; conditions: 10^8 x1
solubility = type: physicochemical
[15] = test system: Staphylococcus aureus (MS 353); assay: antibacterial spectrum, agar dilution method; type: cell-based; conditions: S. aureus MS 353, 10^8 x1
[16] = test system: Streptococcus agalactiae (1020); assay: antibacterial spectrum, agar dilution method; type: cell-based; conditions: S. agalactiae 1020, 10^8 x1
[17] = test system: Streptococcus faecalis (1501); assay: antibacterial spectrum, agar dilution method; type: cell-based; conditions: S. faecalis 1501, 10^8 x1
[18] = test system: Escherichia coli (NIHJ-JC2); assay: antibacterial spectrum, agar dilution method; type: cell-based; conditions: E. coli NIHJ-JC2, 10^8 x1
[19] = test system: Staphylococcus aureus (MS 353 C36); assay: antibacterial spectrum, agar dilution method; type: cell-based; conditions: S. aureus MS 353 C36, 10^8 x1
[20] = test system: Bacillus subtilis (ATCC 6633); assay: antibacterial spectrum, agar dilution method; type: cell-based; conditions: 10^8 x1
[21] = test system: Salmonella enteritidis gertner; assay: antibacterial spectrum, agar dilution method; type: cell-based; conditions: 10^8 x1
[22] = test system: Staphylococcus aureus (0116); assay: antibacterial spectrum, agar dilution method; type: cell-based; conditions: S. aureus 0116, 10^8 x1

CC[C@H]1OC(=O)/C=C/[C@H](C)[C@@H](O[C@@H]2O[C@H](C)C[C@H](N(C)C)[C@H]2O)[C@@H](C)C[C@@H](C)C(=O)/C=C/[C@@H]2O[C@H]2[C@]1(O)CO[C@@H]1O[C@H](C)[C@@H](O)[C@@H](OC)[C@H]1OC [A 11725 II]
Minimum growth inhibitory concentration [1]: ≤ 0.05 µg/mL | Minimum growth inhibitory concentration (Escherichia coli (B)): 25 µg/mL | Minimum growth inhibitory concentration (Mycoplasma gallisepticum): 0.03 µg/mL | Minimum growth inhibitory concentration [2]: > 100 µg/mL | Minimum growth inhibitory concentration [3]: ≤ 0.05 µg/mL | Minimum growth inhibitory concentration [4]: > 100 µg/mL | Minimum growth inhibitory concentration (Mycoplasma synoviae): 0.8 µg/mL | Minimum growth inhibitory concentration [5]: 25 µg/mL | Acidic or basic nature (acidic or basic nature): Basic | Minimum growth inhibitory concentration [6]: > 100 µg/mL | Minimum growth inhibitory concentration [7]: > 100 µg/mL | Minimum growth inhibitory concentration [8]: 0.4 µg/mL | Minimum growth inhibitory concentration (Proteus vulgaris (OX19)): 50 µg/mL | Minimum growth inhibitory concentration [9]: 50 µg/mL | Minimum growth inhibitory concentration [10]: > 100 µg/mL | Minimum growth inhibitory concentration (Serratia marcescence): > 100 µg/mL | Minimum growth inhibitory concentration (Shigella sonney (E 33)): > 100 µg/mL | Minimum growth inhibitory concentration [11]: 0.1 µg/mL | Minimum growth inhibitory concentration [12]: 0.2 µg/mL | Minimum growth inhibitory concentration [13]: > 100 µg/mL | Minimum growth inhibitory concentration [14]: 0.2 µg/mL | Solubility compared with A 11725 I (solubility; similar to A 11725 I): Similar | Minimum growth inhibitory concentration [15]: 0.2 µg/mL | Minimum growth inhibitory concentration [16]: 6.3 µg/mL | Minimum growth inhibitory concentration [17]: > 100 µg/mL | Minimum growth inhibitory concentration [18]: > 100 µg/mL | Minimum growth inhibitory concentration [19]: 0.1 µg/mL | Minimum growth inhibitory concentration [20]: 0.4 µg/mL | Minimum growth inhibitory concentration [21]: > 100 µg/mL | Minimum growth inhibitory concentration [22]: > 100 µg/mL

CC[C@H]1OC(=O)/C=C/[C@H](C)[C@@H](O[C@@H]2O[C@H](C)C[C@H](N(C)C)[C@H]2O)[C@@H](C)C[C@@H](C)C(=O)/C=C/C2OC2[C@@H]1CO[C@@H]1O[C@H](C)[C@@H](O)[C@@H](OC)[C@H]1OC (stereo partly drawn) [A 11725 I]
Minimum growth inhibitory concentration [1]: ≤ 0.05 µg/mL | Minimum growth inhibitory concentration (Escherichia coli (B)): 100 µg/mL | Minimum growth inhibitory concentration (Mycoplasma gallisepticum): 0.006 µg/mL | Minimum growth inhibitory concentration [2]: > 100 µg/mL | Minimum growth inhibitory concentration [3]: ≤ 0.05 µg/mL | Minimum growth inhibitory concentration [4]: > 100 µg/mL | Minimum growth inhibitory concentration (Mycoplasma synoviae): 0.03 µg/mL | Minimum growth inhibitory concentration [5]: 25 µg/mL | Acidic or basic nature (acidic or basic nature): Basic | Minimum growth inhibitory concentration [6]: > 100 µg/mL | Minimum growth inhibitory concentration [7]: > 100 µg/mL | Minimum growth inhibitory concentration [8]: 0.4 µg/mL | Minimum growth inhibitory concentration (Proteus vulgaris (OX19)): 100 µg/mL | Minimum growth inhibitory concentration [9]: 100 µg/mL | Minimum growth inhibitory concentration [10]: > 100 µg/mL | Minimum growth inhibitory concentration (Serratia marcescence): > 100 µg/mL | Minimum growth inhibitory concentration (Shigella sonney (E 33)): > 100 µg/mL | Minimum growth inhibitory concentration [11]: 0.1 µg/mL | Minimum growth inhibitory concentration [12]: 0.2 µg/mL | Minimum growth inhibitory concentration [13]: > 100 µg/mL | Minimum growth inhibitory concentration [14]: ≤ 0.05 µg/mL | Solubility in acidic water and organic solvents (solubility; acidic water, methanol, acetone, ethyl acetate, benzene): Soluble | Minimum growth inhibitory concentration [15]: 0.2 µg/mL | Minimum growth inhibitory concentration [16]: 12.5 µg/mL | Minimum growth inhibitory concentration [17]: > 100 µg/mL | Minimum growth inhibitory concentration [18]: > 100 µg/mL | Minimum growth inhibitory concentration [19]: ≤ 0.05 µg/mL | Minimum growth inhibitory concentration [20]: 0.4 µg/mL | Minimum growth inhibitory concentration [21]: > 100 µg/mL | Minimum growth inhibitory concentration [22]: > 100 µg/mL
